# Patent publication US20230404969A1, “COMPOSITIONS AND METHOD FOR EFFECTIVE MANAGEMENT OF PERITONITIS” (priority 2022, published 2023)
# Test system: IL-1β
# Experiment: Extracellular in vivo IL-1β estimation in serum from treated mice after LPS injection (ELISA)
# Details: 1 mg/kg p.o for 6 days, serum 90 mins after LPS injection, ↑ upregulation
# Method: BALM male mice aged 6-8 weeks were maintained at 22±2° C. under 12/12 h light dark cycle. Mice received oral treatment of test drugs at graded doses (w/v) for 6 days, followed by intravenous injection of 1 mg/kg (Brieva et al. Immunoferon, a glycoconjugate of natural origin, inhibits LPS-induced TNF-α production and inflammatory responses. International Immunopharmacology (2001) 1, 1979-1987). Six mice were employed in each group and experiments were performed in triplicates. Blood was collected from retro-orbital plexus of the experimental animals and serum was separated. TNF-α, IL-1β production was evaluated by a commercial ELISA kit in serum from treated mice, 90 mins after LPS injection.
smiles,measurement,value
CC1=C(C)C(=O)O[C@@H]([C@@H](C)[C@@]2(O)CC[C@H]3[C@@H]4[C@@H]5O[C@@H]5[C@@]5(O)CC=CC(=O)[C@]5(C)[C@H]4CC[C@@]32C)C1 [Withanone],Percentage IL-1β inhibition compared to LPS control,24.5%
